According to patent publication EP4509511A1, “SUBSTITUTED SPIRO-ISOXAZOLINYL LACTAMS, SALTS THEREOF AND THEIR USE AS HERBICIDALLY ACTIVE SUBSTANCES” (Bayer Aktiengesellschaft, priority 2023, dated 2025):

How the values were obtained:
ABUTH [1] = assay: Herbicidal post-emergence action - Part II; format: in vivo, Abutilon theophrasti
Text: (§1) Seeds of mono- and dicotyledonous weed plants and crop plants were sown, in plastic or organic planting pots, in sandy loam, covered with soil and grown in a greenhouse under controlled growth conditions. 2 to 3 weeks after sowing, the test plants were sprayed in the single-leaf stage. The compounds according to the invention, formulated in form of wettable powders (WP) or as emulsifiable concentrates (EC), were sprayed onto the green plant parts as aqueous suspension or emulsion, with the addition of 0.5% of an additive, at an application rate of 600 1 of water/ha (converted). The test plants were placed in the greenhouse for ca. 3 weeks under optimum growth conditions, and then the effect of the preparations was assessed visually in comparison with untreated controls (herbicidal effect in percent (%): 100% effect = plants have died off, 0% effect = as control plants). Tables E1 to E10 below show the effects of selected compounds of the general formula (I) according to table 1 on various harmful plants and an application rate corresponding to 320 g/ha or below obtained by the experimental procedure mentioned above. Table E1a: post-emergence activity at 5g/ha against ABUTH in %

AMARE [2] = assay: Herbicidal post-emergence action - Part II; format: in vivo, Amaranthus retroflexus
Text: as §1

MATIN [3] = assay: Herbicidal post-emergence action - Part II; format: in vivo, Matricaria inodora
Text: as §1

PHBPU = assay: Herbicidal post-emergence action - Part II; format: in vivo, Pharbitis purpurea
Text: as §1

POLCO = assay: Herbicidal post-emergence action - Part II; format: in vivo, Polygonum convolvulus; settings: 20 g/ha; Table E6
Text: as §1

SETVI = assay: Herbicidal post-emergence action - Part II; format: in vivo, Setaria viridis
Text: as §1

VERPE [4] = assay: Herbicidal post-emergence action - Part II; format: in vivo, Veronica persica
Text: as §1

VIOTR = assay: Herbicidal post-emergence action - Part II; format: in vivo, Viola tricolor
Text: as §1

TRZAS = assay: Post-emergence effects on crop plants; format: in vivo, Triticum aestivum; settings: crop plant
Text: as §1, with “F1” for “E1”, “F5” for “E10”, “crop” for “harmful”, “[…]:” for “E1a:”, “ZEAMX” for “ABUTH”

ZEAMX = assay: Post-emergence effects on crop plants; format: in vivo, Zea mays; settings: crop plant
Text: as §1, with “F1” for “E1”, “F5” for “E10”, “crop” for “harmful”, “[…]:” for “E1a:”, “ZEAMX” for “ABUTH”

GLXMA = assay: Post-emergence effects on crop plants; format: in vivo, Glycine max; settings: crop plant
Text: as §1, with “F1” for “E1”, “F5” for “E10”, “crop” for “harmful”, “[…]:” for “E1a:”, “ZEAMX” for “ABUTH”

ECHCG [5] = assay: Herbicidal post-emergence action - Part II; format: in vivo, Echinochloa crus-galli; settings: 20 g/ha; Table E3a
Text: as §1

ECHCG [6] = assay: Herbicidal pre-emergence action - Part I; format: in vivo, Echinochloa crus-galli; settings: 1280 g/ha, visual grading after ca. 3 weeks vs untreated controls
Text: (§2) Seeds of mono- and dicotyledonous weed plants were sown in plastic pots (double sowings with one species of mono- and one species of dicotyledonous weed plants per pot), in sandy loam, and covered with soil. The compounds according to the invention, formulated in the form of wettable powders (WP) or as emulsifiable concentrates (EC), were applied to the surface of the covering soil as aqueous suspension or emulsion, with the addition of 0.5% of an additive, at an application rate of 600 1 of water per hectare (converted). Following treatment, the pots were placed in a greenhouse and kept under optimum growth conditions for the test plants. The visual grading of the damage to the test plants was carried out after ca. 3 weeks in comparison to untreated controls (herbicidaleffectinpercent(%):100%effect=plantshavediedoff,0%effect=ascontrolplants). [formula]
(§3) Tables A1 to A12, below, show the effects of selected compounds of the general formula (I) according to table 1 on various harmful plants and an application rate corresponding to 1280 g/ha or below obtained by the experimental procedure mentioned above. Table A1: pre-emergence activity at 1280g/ha against ABUTH in %

STEME [7] = assay: Herbicidal pre-emergence action - Part I; format: in vivo, Stellaria media; settings: 1280 g/ha, visual grading after ca. 3 weeks vs untreated controls
Text: as §2, §3

AMARE [8] = assay: Herbicidal pre-emergence action - Part I; format: in vivo, Amaranthus retroflexus; settings: 1280 g/ha, visual grading after ca. 3 weeks vs untreated controls
Text: as §2, §3

ABUTH [9] = assay: Herbicidal post-emergence action - Part I; format: in vivo, Abutilon theophrasti; settings: 320 g/ha, one-leaf stage, rated visually after about 3 weeks vs untreated controls
Experimental: (§4) Seeds of mono- and dicotyledonous weed plants were placed in plastic pots in sandy loam soil (doubly sown with in each case one species of mono- or dicotyledonous weed plants per pot), covered with soil and cultivated in a greenhouse under controlled growth conditions. 2 to 3 weeks after sowing, the test plants were treated at the one-leaf stage. The compounds of the invention, formulated in the form of wettable powders (WP) or as emulsion concentrates (EC), were applied onto the green parts of the plants as aqueous suspension or emulsion with addition of 0.5% additive at a water application rate of 600 liters per hectare (converted). After the test plants had been kept in the greenhouse under optimum growth conditions for about 3 weeks, the activity of the preparations was rated visually in comparison to untreated controls. For example, 100% activity = the plants have died, 0% activity = like control plants. Tables B1 to B12, below, show the effects of selected compounds of the general formula (I) according to table 1 on various harmful plants and an application rate corresponding to 1280 g/ha or below obtained by the experimental procedure mentioned above. Table B1a: post-emergence activity at 1280g/ha against ABUTH in %

MATIN [10] = assay: Herbicidal post-emergence action - Part I; format: in vivo, Matricaria inodora; settings: one-leaf stage, rated visually after about 3 weeks vs untreated controls
Experimental: as §4

STEME [11] = assay: Herbicidal post-emergence action - Part I; format: in vivo, Stellaria media; settings: one-leaf stage, rated visually after about 3 weeks vs untreated controls
Experimental: as §4

AMARE [12] = assay: Herbicidal post-emergence action - Part I; format: in vivo, Amaranthus retroflexus; settings: one-leaf stage, rated visually after about 3 weeks vs untreated controls
Experimental: as §4

KCHSC = assay: Herbicidal post-emergence action - Part I; format: in vivo, Kochia scoparia; settings: 1280 g/ha, one-leaf stage, rated visually after about 3 weeks vs untreated controls
Experimental: as §4

VERPE [13] = assay: Herbicidal post-emergence action - Part I; format: in vivo, Veronica persica; settings: 1280 g/ha, one-leaf stage, rated visually after about 3 weeks vs untreated controls
Experimental: as §4

Row | SMILES | post-emergence activity against ABUTH (ABUTH [1]; 5 g/ha, Table E1a) | post-emergence activity against ABUTH (ABUTH [1]; 20 g/ha, Table E1b) | post-emergence activity against AMARE (AMARE [2]; 5 g/ha, Table E2a) | post-emergence activity against AMARE (AMARE [2]; 20 g/ha, Table E2b) | post-emergence activity against MATIN (MATIN [3]; 20 g/ha, Table E4b) | post-emergence activity against PHBPU (PHBPU; 5 g/ha, Table E5a) | post-emergence activity against PHBPU (PHBPU; 20 g/ha, Table E5b) | post-emergence activity against POLCO (POLCO) | post-emergence activity against SETVI (SETVI; 20 g/ha, Table E7b) | post-emergence activity against VERPE (VERPE [4]; 5 g/ha, Table E8a) | post-emergence activity against VERPE (VERPE [4]; 20 g/ha, Table E8b) | post-emergence activity against VIOTR (VIOTR; 5 g/ha, Table E9a) | post-emergence activity against VIOTR (VIOTR; 20 g/ha, Table E9b) | post-emergence activity against TRZAS (TRZAS; 5 g/ha, Table F2a) | post-emergence activity against TRZAS (TRZAS; 20 g/ha, Table F2b) | post-emergence activity against ZEAMX (ZEAMX; 5 g/ha, Table F1a) | also measured
1 | CN1CCCC2(CC(c3cc(-n4c(=O)cc(C(F)(F)F)n(C)c4=O)c(F)cc3Cl)=NO2)C1=O (racemic) [Compound I-56] | 100% | 100% | 100% | 100% | 100% | 90% | 100% | 100% | 90% | 80% | 100% | 100% | 100% | 20% | 20% | – | –
2 | Cn1c(C(F)(F)F)cc(=O)n(-c2cc(C3=NOC4(CCN(Cc5c(F)cccc5F)C4=O)C3)c(Cl)cc2F)c1=O (racemic) [Compound I-29] | 100% | 100% | 100% | 100% | 100% | – | 100% | 100% | 80% | 100% | 100% | 100% | 100% | 20% | 20% | 20% | post-emergence activity against SETVI (SETVI; 5 g/ha, Table E7a): 80%; post-emergence activity against GLXMA (GLXMA; 5 g/ha, Table F4a): 10%; post-emergence activity against GLXMA (GLXMA; 20 g/ha, Table F4b): 20%
3 | Cn1c(C(F)(F)F)cc(=O)n(-c2cc(C3=NOC4(CCN(Cc5ccccc5Cl)C4=O)C3)c(Cl)cc2F)c1=O (racemic) [Compound I-30] | 100% | 100% | 100% | 100% | 100% | 100% | 100% | – | 100% | 90% | 100% | 100% | 100% | 20% | 20% | – | post-emergence activity against ECHCG (ECHCG [5]): 100%; post-emergence activity against ZEAMX (ZEAMX; 20 g/ha, Table F1b): 20%
4 | Cn1c(C(F)(F)F)cc(=O)n(-c2cc(C3=NOC4(CCCN(Cc5c(F)cccc5F)C4=O)C3)c(Cl)cc2F)c1=O (racemic) [Compound I-6] | 100% | 100% | 100% | 100% | – | 100% | 100% | – | 100% | 80% | 80% | 100% | 100% | 20% | – | 10% | post-emergence activity against ECHCG (ECHCG [5]): 80%; post-emergence activity against ZEAMX (ZEAMX; 20 g/ha, Table F1b): 10%
5 | Cn1c(C(F)(F)F)cc(=O)n(-c2cc(C3=NOC4(CCNC4=O)C3)c(Cl)cc2F)c1=O (racemic) [Compound I-71] | 80% | 100% | – | 100% | 80% | – | 80% | 80% | – | – | 80% | 80% | 80% | 0% | – | 20% | –
6 | Cn1c(C(F)(F)F)cc(=O)n(-c2cc(C3=NOC4(CCCN(Cc5ccccc5F)C4=O)C3)c(Cl)cc2F)c1=O (racemic) [Compound I-7] | 100% | 100% | 100% | 100% | 80% | 100% | 100% | 100% | 100% | 100% | 100% | 100% | 100% | 10% | 20% | 20% | post-emergence activity against MATIN (MATIN [3]; 5 g/ha, Table E4a): 80%
7 | COc1ncccc1C1=NOC2(CCN(Cc3cccc(F)c3F)C2=O)C1 (racemic) [Compound I-42] | – | – | – | – | – | – | – | – | – | – | – | – | – | – | – | – | pre-emergence activity at 1280g/ha against ECHCG in % (ECHCG [6]): 90%; pre-emergence activity at 1280g/ha against STEME in % (STEME [7]): 90%; pre-emergence activity at 1280g/ha against AMARE in % (AMARE [8]): 90%; post-emergence activity at 320g/ha against ABUTH in % (ABUTH [9]): 90%; post-emergence activity at 320g/ha against MATIN in % (MATIN [10]; 320 g/ha): 100%; post-emergence activity at 1280g/ha against MATIN in % (MATIN [10]; 1280 g/ha): 100%; post-emergence activity at 320g/ha against STEME in % (STEME [11]; 320 g/ha): 100%; post-emergence activity at 1280g/ha against STEME in % (STEME [11]; 1280 g/ha): 100%; post-emergence activity at 320g/ha against AMARE in % (AMARE [12]; 320 g/ha): 90%; post-emergence activity at 1280g/ha against AMARE in % (AMARE [12]; 1280 g/ha): 90%; post-emergence activity at 1280g/ha against KCHSC in % (KCHSC): 90%; post-emergence activity at 1280g/ha against VERPE in % (VERPE [13]): 90%
